Assay results from the CheMixHub ionic liquid set.
± gives the uncertainty stated by the source.

Test: xn = mol fraction of the nth substance listed

CC[n+]1ccn(C)c1.O=S(=O)([O-])C(F)(F)F + O=S(=O)([O-])C(F)(F)F.[Li+]
101 kPa, x1 = 1
Details	electrical conductivity [S/m]
288.15 K	0.605 ± 0.061
298.15 K	0.859 ± 0.086
333.15 K	2.24 ± 0.22

CC[n+]1ccn(C)c1.O=S(=O)([O-])C(F)(F)F + O=[N+]([O-])[O-].[Li+]
101 kPa, x1 = 1
Details	electrical conductivity [S/m]
288.15 K	0.605 ± 0.061
298.15 K	0.859 ± 0.086
333.15 K	2.24 ± 0.22

CCCC[P+](CCCC)(CCCC)CCCC.[Br-] + OCC(O)CO
101.3 kPa, x1 = 0.333
Details	viscosity [mPa·s]
293.15 K	468 ± 51
298.15 K	329 ± 34
303.15 K	235 ± 24
308.15 K	172 ± 17
313.15 K	116 ± 12
318.15 K	97.1 ± 9.8
323.15 K	68.4 ± 6.9

CC[n+]1ccn(C)c1.O=S(=O)([O-])C(F)(F)F + OCC(O)CO
100 kPa
Details	electrical conductivity [S/m]	viscosity [mPa·s]
293.15 K, x1 = 0.002	–	1372 ± 64
293.15 K, x2 = 0.199	–	48.9 ± 1
293.15 K, x2 = 0.605	–	97.9 ± 2.6
293.15 K, x2 = 0.698	–	146.4 ± 4.3
293.15 K, x2 = 0.962	–	968 ± 42
298.15 K, x1 = 0.002	0.000274 ± 1.1e-05	–
298.15 K, x1 = 0.004	0.00056 ± 2e-05	–
298.15 K, x1 = 0.011	0.00141 ± 6e-05	–
298.15 K, x1 = 0.018	0.00247 ± 0.0001	–
298.15 K, x2 = 0.401	0.68 ± 0.03	45.4 ± 1
303.15 K, x2 = 0.962	–	425 ± 15
313.15 K, x1 = 0.002	0.00084 ± 3e-05	–
313.15 K, x1 = 0.004	0.00176 ± 7e-05	–
313.15 K, x1 = 0.011	0.00439 ± 0.00018	–
313.15 K, x1 = 0.018	0.0079 ± 0.0003	243 ± 7.4
313.15 K, x2 = 0.299	1.27 ± 0.05	23.4 ± 0.5
